From patent US20100222328A1, “2-CYCLOPROPYL-THIAZOLE DERIVATIVES” (priority 2007, published 2010)
Like-named read-outs stand apart in the source and are kept apart here.

Legend:
human orexin-2 receptor = target: T1, human orexin-2 receptor (Homo sapiens, UniProt O43614); assay: Intracellular calcium measurements (FLIPR), CHO cells expressing the human orexin-2 receptor, orexin-A as agonist; assay type: cell-based; conditions: 3 nM orexin-A, read-out: OX2 IC50
T1 construct: expressed in transfected cells; host or cells: CHO cells (grown under G418 selection)
T1 sequence (O43614 1-444): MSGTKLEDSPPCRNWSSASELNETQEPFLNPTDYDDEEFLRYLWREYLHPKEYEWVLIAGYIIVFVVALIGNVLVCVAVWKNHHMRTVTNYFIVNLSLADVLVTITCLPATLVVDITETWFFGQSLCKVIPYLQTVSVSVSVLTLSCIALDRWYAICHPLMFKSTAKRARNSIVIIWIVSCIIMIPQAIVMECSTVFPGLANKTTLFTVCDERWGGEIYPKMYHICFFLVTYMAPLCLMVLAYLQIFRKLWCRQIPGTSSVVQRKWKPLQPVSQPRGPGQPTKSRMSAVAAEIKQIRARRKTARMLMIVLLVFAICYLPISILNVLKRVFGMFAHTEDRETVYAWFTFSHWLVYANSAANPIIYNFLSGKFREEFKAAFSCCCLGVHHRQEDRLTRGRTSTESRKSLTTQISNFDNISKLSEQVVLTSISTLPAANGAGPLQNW
Procedure: (§1) The orexin receptor antagonistic activity of the compounds of formula (I) is determined in accordance with the following experimental method.
(§2) Chinese hamster ovary (CHO) cells expressing the human orexin-1 receptor and the human orexin-2 receptor, respectively, are grown in culture medium (Ham F-12 with L-Glutamine) containing 300 μg/ml G418, 100 U/ml penicillin, 100 μg/ml streptomycin and 10% heat inactivated fetal calf serum (FCS). The cells are seeded at 20′000 cells/well into 384-well black clear bottom sterile plates (Greiner). The seeded plates are incubated overnight at 37° C. in 5% CO2.
(§3) Human orexin-A as an agonist is prepared as 1 mM stock solution in MeOH: water (1:1), diluted in HBSS containing 0.1% bovine serum albumin (BSA), NaHCO3: 0.375g/l and 20 mM HEPES for use in the assay at a final concentration of 3 nM.
(§4) Antagonists are prepared as 10 mM stock solution in DMSO, then diluted in 384-well plates using DMSO followed by a transfer of the dilutions into in HBSS containing 0.1% bovine serum albumin (BSA), NaHCO3: 0.375 g/l and 20 mM HEPES. On the day of the assay, 50 μl of staining buffer (HBSS containing 1% FCS, 20 mM HEPES, NaHCO3: 0.375 g/l, 5 mM probenecid (Sigma) and 3 μM of the fluorescent calcium indicator fluo-4 AM (1 mM stock solution in DMSO, containing 10% pluronic) is added to each well. The 384-well cell-plates are incubated for 50 min at 37° C. in 5% CO2 followed by equilibration at rt for 30-120 min before measurement.
(§5) Within the Fluorescent Imaging Plate Reader (FLIPR2 or FLIPR Tetra, Molecular Devices), antagonists are added to the plate in a volume of 10 μl/well, incubated for 10 min and finally 10 μl/well of agonist is added. Fluorescence is measured for each well at 1 second intervals, and the height of each fluorescence peak is compared to the height of the fluorescence peak induced by 3 nM orexin-A with vehicle in place of antagonist. For each antagonist, the IC50 value (the concentration of compound needed to inhibit 50% of the agonistic response) is determined. The calculated IC50 values of the compounds may fluctuate depending on the daily cellular assay performance. Fluctuations of this kind are known to those skilled in the art.

human orexin-1 receptor = target: T2, human orexin-1 receptor (Homo sapiens, UniProt O43613); assay: Intracellular calcium measurements (FLIPR), CHO cells expressing the human orexin-1 receptor, orexin-A as agonist; assay type: cell-based; conditions: 3 nM orexin-A, read-out: OX1 IC50
T2 construct: expressed in transfected cells; host or cells: CHO cells (grown under G418 selection)
T2 sequence (O43613 1-425): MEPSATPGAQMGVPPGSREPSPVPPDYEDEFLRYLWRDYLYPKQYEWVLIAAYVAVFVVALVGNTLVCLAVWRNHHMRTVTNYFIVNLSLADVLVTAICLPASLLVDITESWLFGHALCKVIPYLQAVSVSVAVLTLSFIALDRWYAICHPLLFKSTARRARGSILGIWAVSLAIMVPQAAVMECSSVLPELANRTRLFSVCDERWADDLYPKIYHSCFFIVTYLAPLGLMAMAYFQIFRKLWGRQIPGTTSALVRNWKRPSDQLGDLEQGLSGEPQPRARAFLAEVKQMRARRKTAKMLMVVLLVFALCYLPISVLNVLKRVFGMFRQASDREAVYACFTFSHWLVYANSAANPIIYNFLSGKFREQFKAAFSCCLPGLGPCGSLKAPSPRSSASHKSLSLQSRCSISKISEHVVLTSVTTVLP
Procedure: as §1, §2, §3, §4, §5

Row | SMILES | IC50 (human orexin-2 receptor; measured on FLIPR2) [µM] | IC50 (human orexin-1 receptor; measured on FLIPR2) [µM] | IC50 (human orexin-2 receptor; measured on FLIPR Tetra) [µM] | IC50 (human orexin-1 receptor; measured on FLIPR Tetra) [µM]
1 | Cc1cccc(C(=O)NC[C@@H]2CCCCN2C(=O)c2nc(C3CC3)sc2-c2ccccc2F)c1 [Example 1, (S)—N-{1-[2-Cyclopropyl-5-(2-fluoro-phenyl)-thiazole-4-carbonyl]-piperidin-2-ylmethyl}-3-methyl-benzamide] | 0.016 | 0.019 |  | 
2 | O=C(NC[C@@H]1CCCCN1C(=O)c1nc(C2CC2)sc1-c1ccccc1F)c1cccc2cccnc12 [Example 5, (S)-Quinoline-8-carboxylic acid {1-[2-cyclopropyl-5-(2-fluoro-phenyl)-thiazole-4-carbonyl]-piperidin-2-ylmethyl}-amide] | 0.0077 | 0.0051 |  | 
3 | Cc1nc2sccn2c1C(=O)NC[C@@H]1CCCCN1C(=O)c1nc(C2CC2)sc1-c1ccccc1F [Example 10, (S)-6-Methyl-imidazo[2,1-b]thiazole-5-carboxylic acid {1-[2-cyclopropyl-5-(2-fluoro-phenyl)-thiazole-4-carbonyl]-piperidin-2-ylmethyl}-amide] | 0.003 | 0.0018 |  | 
4 | Cc1ccc(-c2sc(C3CC3)nc2C(=O)N2CCCC[C@H]2CNC(=O)c2c(C)nc3sccn23)cc1 [Example 31, (S)-6-Methyl-imidazo[2,1-b]thiazole-5-carboxylic acid [1-(2-cyclopropyl-5-p-tolyl-thiazole-4-carbonyl)-piperidin-2-ylmethyl]-amide] | 0.0086 | 0.0022 |  | 
5 | Cc1cccc(-c2sc(C3CC3)nc2C(=O)N2CCCC[C@H]2CNC(=O)c2cc3occc3n2C)c1 [Example 51, (S)-4-Methyl-4H-furo[3,2-b]pyrrole-5-carboxylic acid [1-(2-cyclopropyl-5-m-tolyl-thiazole-4-carbonyl)-piperidin-2-ylmethyl]-amide] | 0.015 | 0.025 |  | 
6 | O=C(NC[C@@H]1CCCCN1C(=O)c1nc(C2CC2)sc1-c1cccc(Cl)c1)c1noc2ccccc12 [Example 68, (S)-Benzo[d]isoxazole-3-carboxylic acid {1-[5-(3-chloro-phenyl)-2-cyclopropyl-thiazole-4-carbonyl]-piperidin-2-ylmethyl}-amide] | 0.011 | 0.019 |  | 
7 | O=C(NC[C@@H]1CCCCN1C(=O)c1nc(C2CC2)sc1-c1cccc(C(F)(F)F)c1)c1cccc(Br)c1 [Example 71, (S)-3-Bromo-N-{1-[2-cyclopropyl-5-(3-trifluoromethyl-phenyl)-thiazole-4-carbonyl]-piperidin-2-ylmethyl}-benzamide] | 0.026 | 0.0072 |  | 
8 | O=C(NC[C@@H]1CCCN1C(=O)c1nc(C2CC2)sc1-c1ccc(F)cc1)c1cccc2occc12 [Example 88, (S)-Benzofuran-4-carboxylic acid {1-[2-cyclopropyl-5-(4-fluoro-phenyl)-thiazole-4-carbonyl]-pyrrolidin-2-ylmethyl}-amide] | 0.015 | 0.023 |  | 
9 | O=C(NC[C@@H]1CCCCN1C(=O)c1nc(C2CC2)sc1-c1ccccc1)c1cnc2sccn12 [Example 96, (S)-Imidazo[2,1-b]thiazole-5-carboxylic acid [1-(2-cyclopropyl-5-phenyl-thiazole-4-carbonyl)-piperidin-2-ylmethyl]-amide] |  |  | 0.0045 | 0.0036
10 | Cn1nc(C(=O)NC[C@@H]2CCCCN2C(=O)c2nc(C3CC3)sc2-c2ccccc2)c2ccccc21 [Example 100, (S)-1-Methyl-1H-indazole-3-carboxylic acid [1-(2-cyclopropyl-5-phenyl-thiazole-4-carbonyl)-piperidin-2-ylmethyl]-amide] |  |  | 0.02 | 0.014
11 | Cc1cccc(-c2sc(C3CC3)nc2C(=O)N2CCCC[C@H]2CNC(=O)c2cccc3c2CCO3)c1 [Example 107, (S)-2,3-Dihydro-benzofuran-4-carboxylic acid [1-(2-cyclopropyl-5-m-tolyl-thiazole-4-carbonyl)-piperidin-2-ylmethyl]-amide] |  |  | 0.022 | 0.018
12 | Cc1cccc(-c2sc(C3CC3)nc2C(=O)N2CCCC[C@H]2CNC(=O)c2cccc(F)c2C)c1 [Example 114, (S)—N-[1-(2-Cyclopropyl-5-m-tolyl-thiazole-4-carbonyl)-piperidin-2-ylmethyl]-3-fluoro-2-methyl-benzamide] |  |  | 0.019 | 0.015
13 | Cn1c(C(=O)NC[C@@H]2CCCCN2C(=O)c2nc(C3CC3)sc2-c2ccccc2)cc2occc21 [Example 131, (S)-4-Methyl-4H-furo[3,2-b]pyrrole-5-carboxylic acid [1-(2-cyclopropyl-5-phenyl-thiazole-4-carbonyl)-piperidin-2-ylmethyl]-amide] |  |  | 0.017 | 0.123
